Measured values taken from patent US10194854B2, “Method for non-invasive monitoring of fluorescent tracer agent with background separation corrections” (MediBeacon Inc., priority 2017, dated 2019).

Assay: Absorption and emission spectra of MB-102 (FIG. 3)
Type: physicochemical
From the text: By way of illustrative example, FIG. 3 is a graph summarizing the absorption spectra for HbO2 and Hb, as well as the absorption and emission spectra of frequency spectra of MB-102, an exogenous fluorescent agent in one aspect. Emission spectra for a blue LED light source and a green LED light source are also shown superimposed over the other spectra of FIG. 3. In this aspect, the system 200 may include a blue LED as the first light source 218, and the excitatory wavelength for the system 200 may be the isosbestic wavelength of about 450 nm. […] However, at wavelengths above about 500 nm, the HbO2/Hb spectra are less steeply sloped, and a broader band light source including, but not limited to, an LED with a bandpass filter may suffice for use as a first light source 218.
In another aspect, the excitatory wave length may be selected to enhance the contrast in light absorbance between the exogenous fluorescent agent and the chromophores within the tissues of the patient 202. […] Without being limited to any particular theory, a higher proportion of light illuminating the tissue of the patient 202 at a wavelength of about 450 nm will be absorbed by the MB-102 relative to the HbO2 and Hb, thus enhancing the efficiency of absorption by the MB-102 and reducing the intensity of light at the excitatory wavelength needed to elicit a detectable fluorescence signal. […]

Compound: Nc1nc(C(=O)N[C@H](CO)C(=O)O)c(N)nc1C(=O)N[C@H](CO)C(=O)O [MB-102]
- light absorption relative to the light absorption of the HbO2 and the Hb (at the isosbestic wavelength of 452 nm): more than three-fold higher
- emission peak wavelength (emission spectrum): about 550 nm
